Tests used:
coronary arteries = experiment: Acetylcholine induced relaxation of U46619-preconstricted coronary arteries after Aβ40; type: cell-based, rat; conditions: single dose 10^-6 M Aβ40; 10^-7 M U46619; acetylcholine 10^-9 M to 10^-5 M
Text: The effect of pretreatment of coronary arteries with a single dose (10^-6 M) of Aβ40 on acetylcholine induced relaxation is shown in FIG. 20. The blood vessel was preconstricted with 10^-7 M U46619 and relaxed with increasing doses of acetylcholine (10^-9 M to 10^-5 M).

rat coronary arteries = experiment: Constriction of rat coronary arteries by β-amyloid peptides and potentiation of U46619 constriction; type: cell-based; conditions: for coronary artery vasoactivity induced by β-amyloid fragments (real time recording): 10^-6 M β-amyloid peptide
Experimental: The effects of β-amyloid peptide were examined on samples of rat coronary arteries prepared as described above. Referring specifically to FIG. 1, rat coronary arteries were treated with β-amyloid peptide (Aβ40) causing constriction of the coronary arteries.
FIG. 3 illustrates the effect of various amyloid fragments on the constriction of rat coronary arteries. Following control constriction with 10^-7 M U46619, the tissue samples were rinsed, equilibrated with buffer, and treated with 10^-6 M Aβ peptides for fifteen minutes. Following treatment with the Aβ peptides, the blood vessels were rinsed and again exposed to U46619. The values are expressed as percent of control constriction produced by U46619 alone.

aortic rings = experiment: β-amyloid augmentation of phenylephrine (PE) induced contraction of aortic rings; type: cell-based, rat; conditions: for effect of drug on β-amyloid induced enhancement of PE mediated contraction: β-amyloid 5×10^-7 M, PE 4×10^-8 M, L-NMMA 10^-4 M, indomethacin 10^-5 M, SQ 29548 10^-5 M, catalase 1000 units/ml
Experimental: (§1) Freshly excised rat and porcine blood vessels were placed in Kreb's bicarbonate buffer equilibrated with 5% CO2 in O2. The buffer composition consisted of 118.2 mM NaCl, 4.7 mM KCl, 1.2 mM MgSO4, 2.5 mM CaCl2, 1.2 mM NaH2 PO4, 23 mM NaHCO3 and 11.2 mM glucose. After cleaning the vessels free of fat and other adhering tissues, the vessels were cut into ring segments of approximately 3mm in length. Care was taken not to damage the intimal surface.
(§2) The blood vessel preparations were mounted on stainless steel hooks attached to a force-displacement transducer and equilibrated under the optimum tension of 1.3 g for a period of sixty minutes in a tissue bath (10 ml) containing oxygenated (5% CO2 in O2) Kreb's buffer at 37° C. The buffer was changed every fifteen minutes. After equilibration for sixty minutes the viability of the blood vessel with intact endothelium was established by constricting the blood vessel using phenylephrine ([…]). This dose of phenylephrine elicited 80% of the maximum response. […] The vessel preparations were washed for fifteen minutes before various manipulations as described below.
The procedure was then repeated following incubation of the tissue with 10^-6 M β-amyloid for fifteen minutes (P1). The tissue was then rinsed and contractions repeated twice following fifteen minute incubation (P2 & P3) without further addition of β-amyloid. Arrows are shown for points of addition for P3.
Following a fifteen minute incubation, the preparations were contracted with 10^-7 M phenylephrine (PE) as described earlier. Control contractions with PE alone were carried out in presence of the various test compounds. Values represent the mean ±SEM of four or more experiments. The heat-inactivated SOD was prepared by placing it in boiling water for thirty minutes followed by cooling prior to use. The hydrogen peroxide-inactivated SOD was prepared by exposing SOD to 10 mM H2 O2 for thirty minutes at pH 8.5 and subsequent separation using Microcon filtration system. The amyloid induced PE contraction was blocked by active SOD. Neither albumin or inactivated SOD had any effect on the amyloid activity.
The effect of preincubation of blood vessel with 10^-6 M β-amyloidon contraction induced by phenylephrine (2,4,8, & 16×10^-8 M is shown in Table 1). The maximum contraction in the absence of β-amyloid is taken as 100% and the values obtained following exposure to β-amyloid are expressed as percent of control value. After washing out phenylephrine and acetylcholine of the control contraction, β-amyloid augmented the phenylephrine induced contractions (P1). This effect was blocked by SOD. Washing out the phenylephrine and acetylcholine of the post peptide contraction and repeating the contractions caused further enhancement (P2). Values represent the mean ±SEM of nine or more experiments.
The tissue was then incubated for fifteen minutes with β-amyloid (5×10^-7 M) with or without the drug, followed by contractions with PE. The concentrations compounds used were: L-NMMA, an inhibitor of NO synthase (10^-4 M); indomethacin, an inhibitor of the cyclooxygenase pathway (10^-5 M); SQ 29548, a thromboxane A2 receptor antagonist (10^-5 M); and catalase (1000 units/ml). Values are represented as percentage of the maximal contraction obtained with β-amyloid and PE alone and standardized to remove the intrinsic effects (if any) of each drug on PE contraction alone. The results represent the mean ±SEM of five or more experiments.

blood vessel = experiment: Viability and endothelium test of blood vessel rings: phenylephrine constriction, acetylcholine relaxation; type: cell-based, rat; conditions: vessel with or without endothelium
Experimental: as §1
The endothelium was removed from some preparations by rubbing the inside of the lumen with a metal spatula for six to ten seconds and subsequent rinsing with buffer. The removal of endothelium was confirmed by testing for relaxation to acetylcholine [Furchgott and Zawadzki, 1980].
as §2

Aβ40: Soluble Aβ containing forty amino acids
effect on vasodilation induced by acetylcholine (coronary arteries): significantly reduced the vasodilation induced by acetylcholine | duration of constriction compared among fragments (rat coronary arteries; 10^-6 M): longest sustained constriction | contraction induced in rat coronary artery (rat coronary arteries; 10^-6 M Aβ, fifteen minutes): small but detectable contraction | coronary artery vasoactivity induced by β-amyloid fragments (real time recording) (rat coronary arteries): induce constriction of the coronary artery | vasoconstriction induced by U46619 following treatment with Aβ (rat coronary arteries; U46619 10^-7 M, 10^-6 M Aβ fifteen minutes): significantly potentiated

Aβ25-35: β-amyloid peptide fragment (GSNKGAIIGLM; Amyloid-beta protein 42; UniProt P05067 696-706, looked up, fragment)
coronary artery vasoactivity induced by β-amyloid fragments (real time recording) (rat coronary arteries): induce constriction of the coronary artery

O=C(O)CCC/C=C\C[C@@H]1[C@H](CNNC(=O)Nc2ccccc2)[C@H]2CC[C@@H]1O2 [SQ29548]
effect of drug on β-amyloid induced enhancement of PE mediated contraction (aortic rings): none of the compounds used (L-NMMA, indomethacin, SQ29548, or catalase) had any significant effect on the enhancement response

albumin
effect of test compound on amyloid induced PE contraction (specificity of SOD action) (aortic rings; preincubation before 10^-6 M β-amyloid, fifteen minutes, 10^-7 M PE (FIG. 12c)): did not protect the blood vessel against the effects of β-amyloid

CNC(=N)NCCC[C@H](N)C(=O)O [L-NMMA]
effect of drug on β-amyloid induced enhancement of PE mediated contraction (aortic rings): none of the compounds used (L-NMMA, indomethacin, SQ29548, or catalase) had any significant effect on the enhancement response

COc1ccc2c(c1)c(CC(=O)O)c(C)n2C(=O)c1ccc(Cl)cc1 [indomethacin]
effect of drug on β-amyloid induced enhancement of PE mediated contraction (aortic rings): none of the compounds used (L-NMMA, indomethacin, SQ29548, or catalase) had any significant effect on the enhancement response

CNC[C@H](O)c1cccc(O)c1 [phenylephrine]
constriction in response to phenylephrine (blood vessel): constricted in response to phenylephrine with or without endothelium

catalase
effect of drug on β-amyloid induced enhancement of PE mediated contraction (aortic rings): none of the compounds used (L-NMMA, indomethacin, SQ29548, or catalase) had any significant effect on the enhancement response

CCCCC[C@H](O)/C=C/[C@@H]1[C@@H](C/C=C\CCCC(=O)O)[C@H]2CO[C@@H]1C2 [U46619]
effect of the vasoconstrictor on the coronary artery (rat coronary arteries; U46619 10^-7 M): also caused constriction of the blood vessel
